This is an account of results in patent US10442836B2, “1-(chloromethyl)-2,3-dihydro-1H-benzo[E]indole dimer antibody-drug conjugate compounds, and methods of use and treatment” (priority 2013, dated 2019).

The subject of one data set is EOL-1 cells. The experiment in a line: EOL-1 in vitro cell viability (CellTiter-Glo cell proliferation assay). The following applies: EOL-1 in vitro cell viability at 3 days versus concentrations (μg/ml). It counts as cell-based, human. From the text: The CellTiter-Glo® Luminescent Cell Viability Assay is a commercially available (Promega Corp., Madison, Wis.), homogeneous assay method based on the recombinant expression of Coleoptera luciferase (U.S. Pat. Nos. 5,583,024; 5,674,713; 5,700,670). This cell proliferation assay determines the number of viable cells in culture based on quantitation of the ATP present, an indicator of metabolically active cells (Crouch et al (1993) J. Immunol. Meth. 160:81-88; U.S. Pat. No. 6,602,677). The CellTiter-Glo® Assay was conducted in 96 well format, making it amenable to automated high-throughput screening (HTS) (Cree et al (1995) AntiCancer Drugs 6:398-404). The homogeneous assay procedure involves adding the single reagent (CellTiter-Glo® Reagent) directly to cells cultured in serum-supplemented medium. Cell washing, removal of medium and multiple pipetting steps are not required. The system detects as few as 15 cells/well in a 384-well format in 10 minutes after adding reagent and mixing. The cells may be treated continuously with ADC, or they may be treated and separated from ADC.
The homogeneous “add-mix-measure” format results in cell lysis and generation of a luminescent signal proportional to the amount of ATP present. The amount of ATP is directly proportional to the number of cells present in culture. […] Viable cells are reflected in relative luminescence units (RLU). […]
Efficacy of ADC was measured by a cell proliferation assay employing the following protocol ([…] GLO™ Luminescent Cell Viability Assay, Promega Corp. Technical Bulletin TB288; Mendoza et al (2002) Cancer Res. 62:5485-5488): • 1. […] The plate was incubated at room temperature for 10 minutes to stabilize the luminescence signal. • 8. Luminescence was recorded and reported in graphs as RLU=relative luminescence units. • Data are plotted as the mean of luminescence for each set of replicates, with standard deviation error bars. […]
For orientation: In ATP-based viability assays light output follows the ATP content of the culture.

`CN(CCN(C)C(=O)Oc1cc2c(c3ccccc13)[C@H](CCl)CN2C(=O)CCCC(=O)N1C[C@@H](CCl)c2c1cc(O)c1ccccc21)C(=O)CBr` registered a melting point of 167 to 170 °C.
As for `CN(CCN(C)C(=O)Oc1cc2c(c3ccccc13)[C@H](CCl)CN2C(=O)CCCC(=O)N1C[C@@H](CCl)c2c1cc(OP(=O)(O)O)c1ccccc21)C(=O)CCCCCN1C(=O)C=CC1=O`, the melting point was 191 to 194 °C (dec.).
As to `CN1CCN(C(=O)Oc2cc3c(c4ccccc24)C(CCl)CN3C(=O)/C=C/c2ccc(/C=C/C(=O)N3C[C@@H](CCl)c4c3cc(OC(=O)N3CCN(C)CC3)c3ccccc43)cc2NC(=O)CCNC(=O)CCCCCN2C(=O)C=CC2=O)CC1` (stereo partly drawn), the melting point is 268 °C (dec.).

B1: ADC 125: Thio Hu Anti-CD33 15G15.33 HC A118C-MC-MMED-(CBI dimer phos); linker-CBI intermediate 57 (conjugate)
VH: QVQLVQSGAEVKKPGSSVKVSCKASGGIFSNHAISWVRQAPGQGLEWMGGIIPIFGTANYAQKFQGRVTITADESTSTAFMELSSLRSEDTAVYYCAREWADVFDIWGQGTMVTVSS
VL: EIVLTQSPLSLPVTPGEPASISCRSSQSLLHSNGYNYLDWYLQKPGQSPQLLIYLGVNSVSGVPDRFSGSGSGTDFTLKISRVEAEDVGVYYCMQALQTPWTFGQGTKVEIK
Consider B1, for which, in the data set on EOL-1 cells, the cell-killing activity entry is listed as “modest dose response cell-killing activity”.

B2: ADC 129: Thio Hu Anti-CD33 15G15.33 HC A118C-MC-ED-(CBI dimer DVB phos); linker-CBI intermediate 68 (conjugate)
VH: QVQLVQSGAEVKKPGSSVKVSCKASGGIFSNHAISWVRQAPGQGLEWMGGIIPIFGTANYAQKFQGRVTITADESTSTAFMELSSLRSEDTAVYYCAREWADVFDIWGQGTMVTVSS
VL: EIVLTQSPLSLPVTPGEPASISCRSSQSLLHSNGYNYLDWYLQKPGQSPQLLIYLGVNSVSGVPDRFSGSGSGTDFTLKISRVEAEDVGVYYCMQALQTPWTFGQGTKVEIK
Turning to B2, the cell-killing activity entry with EOL-1 cells is recorded as “potent, dose responsive cell-killing activity”.

B3: ADC 127: Thio Hu Anti-CD33 15G15.33 HC A118C-MC-ED-(CBI dimer DVB diphos); linker-CBI intermediate 66 (conjugate)
VH: QVQLVQSGAEVKKPGSSVKVSCKASGGIFSNHAISWVRQAPGQGLEWMGGIIPIFGTANYAQKFQGRVTITADESTSTAFMELSSLRSEDTAVYYCAREWADVFDIWGQGTMVTVSS
VL: EIVLTQSPLSLPVTPGEPASISCRSSQSLLHSNGYNYLDWYLQKPGQSPQLLIYLGVNSVSGVPDRFSGSGSGTDFTLKISRVEAEDVGVYYCMQALQTPWTFGQGTKVEIK
As to B3, in the data set with EOL-1 cells, the cell-killing activity result is given as “potent, dose responsive cell-killing activity”.

The term melting point denotes the temperature, or range, at which the solid turns liquid.
